ChEMBL document CHEMBL4507315 (2021)

Columns and labels:
[1] = target: Serine/threonine-protein kinase 36 (Homo sapiens) (UniProt Q9NRP7); settings: Compound concentration 100.0 nM
[2] = target: Muscarinic acetylcholine receptor M4 (Homo sapiens) (UniProt P08173); settings: Compound concentration 10.0 uM
[3] = target: Casein kinase I isoform delta (Homo sapiens) (UniProt P48730); settings: Compound concentration 100.0 nM
[4] = test system: Mast/stem cell growth factor receptor Kit (Homo sapiens), P10721 [V559D,T670I]; settings: Compound concentration 100.0 nM
[5] = target: Ribosomal protein S6 kinase alpha-1 (Homo sapiens) (UniProt Q15418); settings: Compound concentration 100.0 nM
[6] = target: Cytoplasmic tyrosine-protein kinase BMX (Homo sapiens) (UniProt P51813); settings: Compound concentration 100.0 nM
[7] = target: Serine/threonine-protein kinase 32B (Homo sapiens) (UniProt Q9NY57); settings: Compound concentration 100.0 nM
[8] = target: Phosphatidylinositol 4,5-bisphosphate 3-kinase catalytic subunit gamma isoform (Homo sapiens) (UniProt P48736); settings: Compound concentration 100.0 nM
[9] = target: Phosphatidylinositol 4,5-bisphosphate 3-kinase catalytic subunit delta isoform (Homo sapiens) (UniProt O00329); settings: Compound concentration 100.0 nM
[10] = target: G protein-coupled receptor kinase 4 (Homo sapiens) (UniProt P32298); settings: Compound concentration 100.0 nM
[11] = test system: Receptor-type tyrosine-protein kinase FLT3 (Homo sapiens), P36888 [D835Y]; settings: Compound concentration 100.0 nM
[12] = target: ALK tyrosine kinase receptor (Homo sapiens) (UniProt Q9UM73); settings: Compound concentration 100.0 nM
[13] = target: Tyrosine-protein kinase Mer (Homo sapiens) (UniProt Q12866); settings: Compound concentration 100.0 nM
[14] = test system: Receptor-type tyrosine-protein kinase FLT3 (Homo sapiens), P36888 [D835H]; settings: Compound concentration 100.0 nM
[15] = target: Serine/threonine-protein kinase RIO3 (Homo sapiens) (UniProt O14730); settings: Compound concentration 100.0 nM
[16] = target: Serine/threonine-protein kinase tousled-like 1 (Homo sapiens) (UniProt Q9UKI8); settings: Compound concentration 100.0 nM
[17] = target: 5-hydroxytryptamine receptor 1D (Homo sapiens) (UniProt P28221); settings: Compound concentration 10.0 uM
[18] = target: Serine/threonine-protein kinase NIM1 (Homo sapiens) (UniProt Q8IY84); settings: Compound concentration 100.0 nM
[19] = target: Serine/threonine-protein kinase MRCK alpha (Homo sapiens) (UniProt Q5VT25); settings: Compound concentration 100.0 nM
[20] = target: SRSF protein kinase 3 (Homo sapiens) (UniProt Q9UPE1); settings: Compound concentration 100.0 nM
[21] = target: GABA-A receptor; anion channel (Rattus norvegicus) (UniProt O09028+P15431+P18506+P18508+P19969+P20236+P23574+P23576+P28471+P28473+P30191+P62813+P63079+P63138+Q91ZM7+Q9ES14); settings: Compound concentration 10.0 uM
[22] = target: Vascular endothelial growth factor receptor 3 (Homo sapiens) (UniProt P35916); settings: Compound concentration 100.0 nM
[23] = target: Phosphatidylinositol 4,5-bisphosphate 3-kinase catalytic subunit beta isoform (Homo sapiens) (UniProt P42338); settings: Compound concentration 100.0 nM
[24] = target: Calcium/calmodulin-dependent protein kinase type II subunit delta (Homo sapiens) (UniProt Q13557); settings: Compound concentration 100.0 nM
[25] = test system: Receptor-type tyrosine-protein kinase FLT3 (Homo sapiens), P36888 [K663Q]; settings: Compound concentration 100.0 nM
[26] = target: Ephrin type-B receptor 6 (Homo sapiens) (UniProt O15197); settings: Compound concentration 100.0 nM
[27] = target: MAP/microtubule affinity-regulating kinase 3 (Homo sapiens) (UniProt P27448); settings: Compound concentration 100.0 nM
[28] = test system: Tyrosine-protein kinase ABL1 (Homo sapiens), P00519 [H396P]; settings: Compound concentration 100.0 nM
[29] = target: Serine/threonine-protein kinase SBK1 (Homo sapiens) (UniProt Q52WX2); settings: Compound concentration 100.0 nM
[30] = target: Death-associated protein kinase 1 (Homo sapiens) (UniProt P53355); settings: Compound concentration 100.0 nM
[31] = target: Serine/threonine-protein kinase PLK4 (Homo sapiens) (UniProt O00444); settings: Compound concentration 100.0 nM
[32] = target: Activin receptor type-2B (Homo sapiens) (UniProt Q13705); settings: Compound concentration 100.0 nM
[33] = target: Homeodomain-interacting protein kinase 1 (Homo sapiens) (UniProt Q86Z02); settings: Compound concentration 100.0 nM
[34] = target: Bone morphogenetic protein receptor type-1A (Homo sapiens) (UniProt P36894); settings: Compound concentration 100.0 nM
[35] = target: Delta-type opioid receptor (Homo sapiens) (UniProt P41143); settings: Compound concentration 10.0 uM
[36] = target: cAMP-dependent protein kinase catalytic subunit beta (Homo sapiens) (UniProt P22694); settings: Compound concentration 100.0 nM
[37] = target: Cyclin-dependent kinase 4 (Homo sapiens) (UniProt P11802); settings: Compound concentration 100.0 nM
[38] = target: Mitogen-activated protein kinase kinase kinase kinase 3 (Homo sapiens) (UniProt Q8IVH8); settings: Compound concentration 100.0 nM
[39] = target: Serine/threonine-protein kinase Nek9 (Homo sapiens) (UniProt Q8TD19); settings: Compound concentration 100.0 nM
[40] = target: Epidermal growth factor receptor (Homo sapiens) (UniProt P00533); settings: Compound concentration 100.0 nM
[41] = target: MAP kinase-interacting serine/threonine-protein kinase 1 (Homo sapiens) (UniProt Q9BUB5); settings: Compound concentration 100.0 nM
[42] = target: Discoidin domain-containing receptor 2 (Homo sapiens) (UniProt Q16832); settings: Compound concentration 100.0 nM
[43] = target: MAP/microtubule affinity-regulating kinase 4 (Homo sapiens) (UniProt Q96L34); settings: Compound concentration 100.0 nM

Serine/threonine-protein kinase PLK4 (Homo sapiens), sequence (O00444 whole entry): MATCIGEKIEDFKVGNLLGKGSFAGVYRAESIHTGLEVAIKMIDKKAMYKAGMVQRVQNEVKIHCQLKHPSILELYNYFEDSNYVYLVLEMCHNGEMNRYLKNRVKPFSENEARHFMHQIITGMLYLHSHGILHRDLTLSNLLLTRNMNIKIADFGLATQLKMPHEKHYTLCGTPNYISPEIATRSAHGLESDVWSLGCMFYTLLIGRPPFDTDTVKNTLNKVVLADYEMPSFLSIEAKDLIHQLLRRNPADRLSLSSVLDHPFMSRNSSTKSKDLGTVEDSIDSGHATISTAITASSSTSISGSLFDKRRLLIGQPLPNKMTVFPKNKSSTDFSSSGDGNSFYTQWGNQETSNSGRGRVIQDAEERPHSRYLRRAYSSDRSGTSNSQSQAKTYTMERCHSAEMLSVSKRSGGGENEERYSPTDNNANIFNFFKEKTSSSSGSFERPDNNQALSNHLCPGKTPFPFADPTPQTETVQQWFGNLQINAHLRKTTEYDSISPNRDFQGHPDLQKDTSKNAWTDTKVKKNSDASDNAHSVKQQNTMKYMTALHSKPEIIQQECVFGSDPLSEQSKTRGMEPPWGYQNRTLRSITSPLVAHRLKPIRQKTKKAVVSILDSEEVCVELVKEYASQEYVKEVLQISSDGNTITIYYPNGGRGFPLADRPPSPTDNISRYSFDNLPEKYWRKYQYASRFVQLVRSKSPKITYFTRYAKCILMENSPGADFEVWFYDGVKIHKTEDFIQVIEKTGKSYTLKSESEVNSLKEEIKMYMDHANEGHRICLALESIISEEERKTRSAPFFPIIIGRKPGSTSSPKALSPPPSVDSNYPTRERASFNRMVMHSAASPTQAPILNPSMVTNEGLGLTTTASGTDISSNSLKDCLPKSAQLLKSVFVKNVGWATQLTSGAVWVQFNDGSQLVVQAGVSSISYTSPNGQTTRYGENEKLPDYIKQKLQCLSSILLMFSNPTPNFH
Ribosomal protein S6 kinase alpha-1 (Homo sapiens), sequence (Q15418 whole entry): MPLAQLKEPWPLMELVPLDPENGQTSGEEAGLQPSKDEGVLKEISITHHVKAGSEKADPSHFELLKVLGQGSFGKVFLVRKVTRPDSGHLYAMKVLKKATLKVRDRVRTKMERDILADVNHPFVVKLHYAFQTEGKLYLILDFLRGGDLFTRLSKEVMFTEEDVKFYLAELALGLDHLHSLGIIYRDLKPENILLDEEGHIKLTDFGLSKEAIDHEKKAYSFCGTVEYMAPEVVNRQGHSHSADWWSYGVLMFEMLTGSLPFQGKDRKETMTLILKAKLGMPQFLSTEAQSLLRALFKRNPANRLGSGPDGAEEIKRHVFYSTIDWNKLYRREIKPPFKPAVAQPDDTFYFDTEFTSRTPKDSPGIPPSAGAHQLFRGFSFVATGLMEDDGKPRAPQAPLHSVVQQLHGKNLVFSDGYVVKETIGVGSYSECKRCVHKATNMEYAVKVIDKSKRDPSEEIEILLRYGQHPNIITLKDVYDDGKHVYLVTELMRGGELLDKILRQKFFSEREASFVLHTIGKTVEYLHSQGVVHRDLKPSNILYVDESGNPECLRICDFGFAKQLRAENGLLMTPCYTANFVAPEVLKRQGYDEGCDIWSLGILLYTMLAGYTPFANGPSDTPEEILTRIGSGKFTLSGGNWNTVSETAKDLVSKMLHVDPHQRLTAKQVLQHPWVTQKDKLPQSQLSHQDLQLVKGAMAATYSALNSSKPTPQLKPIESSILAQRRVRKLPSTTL
Muscarinic acetylcholine receptor M4 (Homo sapiens), sequence (P08173 whole entry, canonical isoform): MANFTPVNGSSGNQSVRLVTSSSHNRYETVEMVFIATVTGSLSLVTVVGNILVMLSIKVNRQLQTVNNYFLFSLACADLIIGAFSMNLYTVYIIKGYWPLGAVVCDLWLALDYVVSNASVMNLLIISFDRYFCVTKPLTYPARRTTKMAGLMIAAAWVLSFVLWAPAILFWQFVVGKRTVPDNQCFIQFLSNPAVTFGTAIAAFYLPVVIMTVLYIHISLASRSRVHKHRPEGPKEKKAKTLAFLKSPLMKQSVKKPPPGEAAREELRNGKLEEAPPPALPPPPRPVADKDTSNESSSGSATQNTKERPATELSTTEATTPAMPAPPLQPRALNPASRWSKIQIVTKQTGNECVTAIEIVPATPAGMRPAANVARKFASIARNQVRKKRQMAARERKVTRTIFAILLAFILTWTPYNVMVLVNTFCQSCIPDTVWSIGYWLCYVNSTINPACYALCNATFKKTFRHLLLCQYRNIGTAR
Calcium/calmodulin-dependent protein kinase type II subunit delta (Homo sapiens), sequence (Q13557 whole entry): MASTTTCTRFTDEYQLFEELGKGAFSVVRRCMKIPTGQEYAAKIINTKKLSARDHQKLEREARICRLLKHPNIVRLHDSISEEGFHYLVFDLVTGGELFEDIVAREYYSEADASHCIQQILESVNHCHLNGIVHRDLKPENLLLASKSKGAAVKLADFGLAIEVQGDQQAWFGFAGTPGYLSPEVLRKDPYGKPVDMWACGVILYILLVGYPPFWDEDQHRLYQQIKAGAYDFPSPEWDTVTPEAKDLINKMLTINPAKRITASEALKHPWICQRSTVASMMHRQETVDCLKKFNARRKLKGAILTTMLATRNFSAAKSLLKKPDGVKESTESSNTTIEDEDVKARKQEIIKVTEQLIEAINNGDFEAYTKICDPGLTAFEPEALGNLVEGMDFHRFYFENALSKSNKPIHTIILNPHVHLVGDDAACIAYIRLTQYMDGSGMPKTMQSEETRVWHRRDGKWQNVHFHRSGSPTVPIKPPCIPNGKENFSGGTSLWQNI
Phosphatidylinositol 4,5-bisphosphate 3-kinase catalytic subunit delta isoform (Homo sapiens), sequence (O00329 whole entry, canonical isoform): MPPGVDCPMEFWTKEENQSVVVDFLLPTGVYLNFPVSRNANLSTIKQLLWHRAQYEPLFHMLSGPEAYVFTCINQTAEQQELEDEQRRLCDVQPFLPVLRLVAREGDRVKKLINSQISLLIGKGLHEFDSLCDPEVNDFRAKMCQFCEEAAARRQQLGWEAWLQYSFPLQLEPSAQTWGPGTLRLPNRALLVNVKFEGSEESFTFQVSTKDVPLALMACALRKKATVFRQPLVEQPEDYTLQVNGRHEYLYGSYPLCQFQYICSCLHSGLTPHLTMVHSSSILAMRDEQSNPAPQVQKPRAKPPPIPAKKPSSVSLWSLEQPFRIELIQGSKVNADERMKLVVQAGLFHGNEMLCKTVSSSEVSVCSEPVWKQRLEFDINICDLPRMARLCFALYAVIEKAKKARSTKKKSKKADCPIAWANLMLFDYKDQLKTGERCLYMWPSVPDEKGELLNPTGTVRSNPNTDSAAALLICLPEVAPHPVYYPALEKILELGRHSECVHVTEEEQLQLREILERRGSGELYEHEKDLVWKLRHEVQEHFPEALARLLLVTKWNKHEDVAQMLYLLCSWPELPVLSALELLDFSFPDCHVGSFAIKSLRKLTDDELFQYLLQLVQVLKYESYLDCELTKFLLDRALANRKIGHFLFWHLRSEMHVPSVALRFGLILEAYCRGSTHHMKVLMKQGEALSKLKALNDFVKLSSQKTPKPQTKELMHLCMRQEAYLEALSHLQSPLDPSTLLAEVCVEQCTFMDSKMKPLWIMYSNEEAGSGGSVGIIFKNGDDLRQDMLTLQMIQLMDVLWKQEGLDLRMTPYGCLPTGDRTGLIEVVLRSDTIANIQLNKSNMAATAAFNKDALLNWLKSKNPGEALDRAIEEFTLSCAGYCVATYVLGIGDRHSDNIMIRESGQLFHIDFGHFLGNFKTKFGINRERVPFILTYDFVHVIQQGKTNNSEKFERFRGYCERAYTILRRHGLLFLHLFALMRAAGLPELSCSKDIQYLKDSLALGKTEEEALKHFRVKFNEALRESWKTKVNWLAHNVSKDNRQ
Serine/threonine-protein kinase 32B (Homo sapiens), sequence (Q9NY57 whole entry, canonical isoform): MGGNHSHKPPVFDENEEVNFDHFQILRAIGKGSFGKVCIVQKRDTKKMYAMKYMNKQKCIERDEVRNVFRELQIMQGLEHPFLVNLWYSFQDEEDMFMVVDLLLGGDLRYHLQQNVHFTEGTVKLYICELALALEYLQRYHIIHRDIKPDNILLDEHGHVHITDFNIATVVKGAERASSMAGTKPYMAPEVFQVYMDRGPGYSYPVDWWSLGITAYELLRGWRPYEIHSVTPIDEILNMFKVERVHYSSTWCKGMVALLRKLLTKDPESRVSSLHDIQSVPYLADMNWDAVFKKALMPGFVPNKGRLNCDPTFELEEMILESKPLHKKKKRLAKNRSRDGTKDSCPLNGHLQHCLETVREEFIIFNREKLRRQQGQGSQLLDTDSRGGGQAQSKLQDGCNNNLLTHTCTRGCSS
Discoidin domain-containing receptor 2 (Homo sapiens), sequence (Q16832 whole entry, the tested form may be a part): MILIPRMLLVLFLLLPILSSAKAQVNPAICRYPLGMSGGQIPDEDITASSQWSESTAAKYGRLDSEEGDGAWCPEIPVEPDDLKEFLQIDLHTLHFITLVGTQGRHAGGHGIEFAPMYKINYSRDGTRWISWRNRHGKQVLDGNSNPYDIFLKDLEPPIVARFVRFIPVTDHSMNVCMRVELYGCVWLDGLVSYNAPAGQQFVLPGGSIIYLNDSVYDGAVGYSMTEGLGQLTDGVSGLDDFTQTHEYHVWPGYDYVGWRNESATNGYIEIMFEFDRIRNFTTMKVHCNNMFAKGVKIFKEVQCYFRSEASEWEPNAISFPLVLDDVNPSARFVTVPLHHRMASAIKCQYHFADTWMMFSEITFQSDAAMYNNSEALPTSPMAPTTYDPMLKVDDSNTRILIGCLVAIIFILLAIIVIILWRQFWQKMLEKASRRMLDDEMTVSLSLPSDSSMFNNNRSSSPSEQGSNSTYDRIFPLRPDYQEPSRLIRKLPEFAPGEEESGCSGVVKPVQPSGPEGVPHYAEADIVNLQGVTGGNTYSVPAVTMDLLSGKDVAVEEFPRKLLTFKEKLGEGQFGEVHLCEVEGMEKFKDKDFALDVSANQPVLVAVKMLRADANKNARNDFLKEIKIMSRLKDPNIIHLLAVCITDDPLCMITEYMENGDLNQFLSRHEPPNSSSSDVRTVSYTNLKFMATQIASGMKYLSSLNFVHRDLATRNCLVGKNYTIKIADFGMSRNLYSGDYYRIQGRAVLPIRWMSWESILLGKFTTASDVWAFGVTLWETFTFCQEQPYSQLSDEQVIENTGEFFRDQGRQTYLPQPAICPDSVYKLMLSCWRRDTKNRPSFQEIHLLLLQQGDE

Nc1c(C(=O)NCc2ccc(C(=O)NCCCC3CCCCC3)cc2)cnn1-c1ccccc1 [SR-318]
inactive: residual activity [1] 100% | inhibition [2] -4.14% | residual activity [3] 100% | residual activity [4] 98% | residual activity [5] 92% | residual activity [6] 100% | residual activity [7] 100% | residual activity [8] 100% | residual activity [9] 94% | residual activity [10] 100% | residual activity [11] 100% | residual activity [12] 100% | residual activity [13] 100% | residual activity [14] 100% | residual activity [15] 100% | residual activity [16] 77% | inhibition [17] 27.6% | residual activity [18] 81% | residual activity [19] 100% | residual activity [20] 100% | inhibition [21] 21.7% | residual activity [22] 100% | residual activity [23] 100% | residual activity [24] 100% | residual activity [25] 100% | residual activity [26] 100% | residual activity [27] 78% | residual activity [28] 100% | residual activity [29] 82% | residual activity [30] 92% | residual activity [31] 100% | residual activity [32] 100% | residual activity [33] 100% | residual activity [34] 100% | inhibition [35] 24.1% | residual activity [36] 82% | residual activity [37] 100% | residual activity [38] 100% | residual activity [39] 100% | residual activity [40] 99% | residual activity [41] 82% | residual activity [42] 56% | residual activity [43] 76%

O=C(NCCCC1CCCCC1)c1ccc(CNC(=O)c2cnn(-c3ccccc3)c2C(F)(F)F)cc1 [SR-321]
inactive: residual activity [1] 100% | inhibition [2] 20.1% | residual activity [3] 100% | residual activity [4] 100% | residual activity [5] 100% | residual activity [6] 75% | residual activity [7] 100% | residual activity [8] 95% | residual activity [9] 100% | residual activity [10] 100% | residual activity [11] 100% | residual activity [12] 100% | residual activity [13] 100% | residual activity [14] 100% | residual activity [15] 100% | residual activity [16] 100% | inhibition [17] -8.35% | residual activity [18] 70% | residual activity [19] 100% | residual activity [20] 100% | inhibition [21] -4.39% | residual activity [22] 100% | residual activity [23] 100% | residual activity [24] 100% | residual activity [25] 100% | residual activity [26] 100% | residual activity [27] 94% | residual activity [28] 99% | residual activity [29] 100% | residual activity [30] 100% | residual activity [31] 96% | residual activity [32] 96% | residual activity [33] 99% | residual activity [34] 100% | inhibition [35] 12.9% | residual activity [36] 100% | residual activity [37] 100% | residual activity [38] 78% | residual activity [39] 100% | residual activity [40] 100% | residual activity [41] 98% | residual activity [42] 100% | residual activity [43] 98%
